Measured values: patent US20060110371A1, “Control of indoleamine 2,3 deoxygenase expression and activity” (INSTITUT PASTEUR, priority 2004, published 2006)

Assays:
[1] = test system: IDO mRNA; assay: IDO mRNA expression by quantitative RT-PCR in monocyte-derived DCs; assay type: cell-based, human; conditions: for effect on IDO mRNA levels induced by PGE2 or forskolin plus TNFα: inhibitor present during 48 hrs culture
Method: Isolation and preparation of cells. Peripheral blood mononuclear cells (PBMCs), DCs and T cells were prepared as described. Briefly, buffy coats were obtained from normal donors (EFS, Rungis) and PBMCs were isolated by sedimentation over Ficoll-Hypaque (Pharmacia Biotech, Piscataway, N.J.). CD 14-enriched and CD-14-depleted fractions were prepared by the use of CD14 Miltenyi microbeads followed by magnetic cell sorting according to the manufacturers' instruction (Miltenyi Biotech, Auburn, Calif.). Immature DCs were prepared by the use of CD14+ fraction by culturing cells in the presence of GM-CSF (Berlix, Seattle, Wash.) and IL-4 (R&D Systems, Minneapolis, Minn.) for 7 days. GM-CSF (1000 U/ml) and IL-4 (500 U/ml) were added to the cultures on days 0, 2, and 4. To generate mature DCs, the cultures were transferred to fresh wells on days 6-7 and the indicated maturation stimulus was added for an additional 1-2 days. At days 6-7, >95% of the cells were CD13^−CD83^−HLA-r^lo DCs. After maturation, on days 8-9, 70-95% of the cells were of the mature […] phenotype. CD4+ and CD8+ T cells were purified from the CD14− fraction to >99% purity by positive selection with the MACS column purification system.
Quantitative analysis of IDO mRNA expression. IDO mRNA detection by real-time PCR. Briefly, RNA was extracted by Tri-reagent (Sigma) and cDNA was synthesized from 1-2 μg RNA using oligo dT (Roche) and Superscript reverse transcriptase (Invitrogen) according to manufacturers' instructions. IDO specific mRNA is quantified relative to GAPDH or TBP (TATA box Binding Protein) using the following primers: IDO forward: 5′[…]-3′ (SEQ ID NO:1), IDO reverse: 5′-[…]-3′ (SEQ ID NO:2), GAPDH forward: 5′[…]-3′ (SEQ ID NO:3), GAPDH reverse: 5′-[…]-3′ (SEQ ID NO:4) TBP forward: 5′-[…]-3′ (SEQ ID NO: 5); TBP reverse: 5′-[…]-3′ (SEQ ID NO: 6),Primers for EP receptors are described in Kamphuis et al. Invest Ophthalmol Vis Sci. 42, 3209-3215 (2001). Quantitative RT-PCR was performed using the SYBR® Green JumpStart™ Taq ReadyMix™ (Sigma) according to manufacturer's instructions. The reactions were run on a PTC200 equipped with a Chromo4™ detector (MJ Research, Mass., USA). […] The ratio gene of interest/housekeeping genes was calculated according to the formula: ratio=2^−dCt (dCT=mean Ct gene−mean Ct housekeeping). […]
Based on IDO's proposed role in immune tolerance, the present inventors evaluated the effect of different DC maturation stimuli on IDO expression. […] The present inventors first established assays to monitor IDO mRNA expression using realtime quantitative RT-PCR (qPCR), and Western blot. RNA was extracted from immature DCs (iDC) exposed to distinct maturation stimuli and IDO expression was quantified as described in the Materials and Methods.

[2] = test system: IDO; assay: IDO enzymatic activity, kynurenine by colorimetric assay (Ehrlich's reagent), in monocyte-derived DCs; assay type: cell-based, human
Method: Determination of IDO enzymatic activity and Kynurenine assays. Tryptophan is catabolized by IDO to N-formylkynrenine, which is rapidly converted to kynurenine. Measurement of kynurenine levels is a surrogate marker for IDO activity.
Except where stated, cells were incubated for an additional 4 hours, followed by harvest of supernatant and quantitation of kynurenine by HPLC or using a colormetric assay.
Alternatively, kynurenine concentrations in the culture supernatants were measured using a colormetric assay (i.e., spectrophotometrically). 50 μl of 30% trichloroacetic acid was added to 100 μl of the culture supernatant, vortexed, and then centrifuged at 10,000 rpm for 5 minutes. A 75 μl volume of the supernatant was added to 75 μl of Ehrlich's reagent (100 mg of […], 5 ml of glacial acetic acid) in a microtiter plate well (96-well format). Optical density was measured at 480 nm filter with a Multiskan MS (Labsystems) microplate reader. The values were referred to a standard curve of defined kynurenine concentrations ([…]).
To validate this approach, the present inventors established a standard curve for quantifying kynurenine and compared the experimental values obtained using the calorimetric assay with those from the HPLC analysis.

[3] = target: human prostanoid receptors; conditions: four receptors (EP1-4) binding PGE2 with high affinity; cited from earlier work
[4] = test system: EP2; assay: EP2 mRNA expression in DCs by quantitative RT-PCR; assay type: cell-based, human; conditions: relative to TBP
Method: (A) The present inventors monitored EP2 and EP4 mRNA expression in DCs exposed to TNFα, PGE2 or a combination of both stimuli. TBP was used as a reference for our qPCR studies as its expression levels matched that of the EP-Rs. White bars represent EP2 levels; black bars indicated EP4 expression. […] All were used at a concentration of 50 μM.
Briefly, RNA was extracted by Tri-reagent (Sigma) and cDNA was synthesized from 1-2 μg RNA using oligo dT (Roche) and Superscript reverse transcriptase (Invitrogen) according to manufacturers' instructions. […] Quantitative RT-PCR was performed using the SYBR® Green JumpStart™ Taq ReadyMix™ (Sigma) according to manufacturer's instructions. The reactions were run on a PTC200 equipped with a Chromo4™ detector (MJ Research, Mass., USA). […] All the measures were performed in duplicates and validated when the difference in Ct between the 2 measures was less than 0.3. […] The ratio gene of interest/housekeeping genes was calculated according to the formula: ratio=2^−dCt (dCT=mean Ct gene−mean Ct housekeeping). GAPDH and TBP were used to normalize for IDO and EP-receptor mRNA expression, respectively.

[5] = test system: tumors expressing IDO; conditions: mice with IDO-transfected tumors; cited from earlier work

## Nc1ncnc2c1ncn2C1CCCO1 (centres unmarked) [SQ22536]
[1]
  effect on IDO mRNA levels induced by PGE2 or forskolin plus TNFα: block IDO expression
[2]; inhibitor added during 48 hrs maturation
  effect on IDO activity of PGE2/forskolin +/- TNFα matured DC: blocks IDO expression/activity
[2]; titrated
  optimal inhibitor concentration against forskolin-induced IDO: 1 mM

## O=S(=O)(NCCNC/C=C/c1ccc(Br)cc1)c1cccc2cnccc12 [H-89]
[1]
  effect on IDO mRNA levels induced by PGE2 or forskolin plus TNFα: block IDO expression

## CCCC1([C@H](O)C/C=C/[C@H]2[C@H](O)CC(=O)[C@@H]2CCCCCCC(=O)OC)CCC1 [butaprost, Butaprost]
[2]; iDCs treated in combination with TNFα, 48 hrs
  IDO activity in the presence of TNFα (PGE2 replaced): resulted in the induction of IDO activity

## CCCCC[C@H](O)/C=C/[C@H]1[C@H](O)CC(=O)[C@@H]1C/C=C\CCCC(=O)O [PGE2, prostaglandin E2]
[1]; PGE2 treated DCs vs iDCs
  increase in transcription of IDO: 50-200 fold
[2]; DCs treated with the stimulus alone
  IDO activity (kynurenine, colorimetric), stimulus alone: lacked measurable IDO activity
[3]
  Kd: low nM range
[4]
  EP2 mRNA expression: down-regulation of EP2

## Cn1cc(C[C@@H](N)C(=O)O)c2ccccc21 [1-MT, 1-Methyl-D-tryptophan]
[5]
  protective tumor immunity: recovered the ability to establish protective immunity

## TNFα
[1]; iDCs exposed to the stimulus
  IDO mRNA expression (in words): did not upregulate IDO expression
